33 compounds from patent publication US20250122160A1, “PROTEIN TYROSINE PHOSPHATASE INHIBITORS AND METHODS OF USE THEREOF” (Calico Life Sciences LLC, priority 0001, published 2025) can be followed below.

Experiment [1] deals with T1, His tagged full-length PTPN1 protein (Homo sapiens, UniProt P18031).
T1 construct: made in house
T1 sequence (P18031 with tags, fused parts or gaps): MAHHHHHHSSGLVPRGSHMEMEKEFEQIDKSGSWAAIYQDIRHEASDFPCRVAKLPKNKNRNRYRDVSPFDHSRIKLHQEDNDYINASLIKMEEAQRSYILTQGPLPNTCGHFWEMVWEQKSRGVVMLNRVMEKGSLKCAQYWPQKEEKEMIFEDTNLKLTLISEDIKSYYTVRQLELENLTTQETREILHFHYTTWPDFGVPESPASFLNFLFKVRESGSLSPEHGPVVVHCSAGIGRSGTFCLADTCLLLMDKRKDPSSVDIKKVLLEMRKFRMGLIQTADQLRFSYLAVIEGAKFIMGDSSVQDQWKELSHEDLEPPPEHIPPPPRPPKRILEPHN
Kind of experiment: Mobility shift assay (MSA) to determine potency of PTPN1 inhibitors. The experiment is classed as biochemical. The conditions noted are these: 0.5 nM enzyme, 2 μM substrate. How it is done:
Compound activity was determined using in house His tagged full-length PTPN1 protein (SEQ ID NO: 3) in an in vitro enzymatic reaction. The enzymatic assay used to determine activity is a mobility shift assay using a LabChip EZ Reader by Caliper Life Sciences. The enzymatic reaction was carried out in assay buffer (50 mM HEPES pH 7.5, 1 mM EGTA, 10 mM EDTA. 0.01% Tween® 20, and 2 mM DTT). The compounds were dispensed on a white 384 well ProxiPlate™ (PerkinElmer Cat #6008289) plate using a Labcyte Echo® liquid handler at varying concentrations (12 point, 1:3 dilution). The enzyme (at 0.5 nM) was incubated with compound for 10 minutes at room temperature. Then the substrate (phosphorylated insulin receptor probe sequence: ((OG488)-(NH—CH2—CH2—O—CH2—CH2—O—CH2—CO)-T-R-D-I-(PY)-E-T-D-Y—Y—R—K—K—NH2) (SEQ ID NO: 2) was added at 2 μM to the plates and incubated for another 10 minutes at room temperature. Finally, a quench solution (water and 4-bromo-3-(2-oxo-2-propoxyethoxy)-5-(3-{[1-(phenylmethanesulfonyl)piperidin-4-yl]amino}phenyl)thiophene-2-carboxylic acid) was added to the plates, which were then run on the EZ Reader (excitation 488 nm, emission 530 nm) to measure % conversion (the amount of phosphorylated substrate which was de-phosphorylated by PTPN1). […] The % inhibition was then used to calculate the IC50 values.

Experiment [2] addresses T2, His tagged PTPN2 (TC45) protein (Homo sapiens, UniProt P17706).
T2 construct: made in house
T2 sequence (P17706 with tags, fused parts or gaps isoform P17706-2): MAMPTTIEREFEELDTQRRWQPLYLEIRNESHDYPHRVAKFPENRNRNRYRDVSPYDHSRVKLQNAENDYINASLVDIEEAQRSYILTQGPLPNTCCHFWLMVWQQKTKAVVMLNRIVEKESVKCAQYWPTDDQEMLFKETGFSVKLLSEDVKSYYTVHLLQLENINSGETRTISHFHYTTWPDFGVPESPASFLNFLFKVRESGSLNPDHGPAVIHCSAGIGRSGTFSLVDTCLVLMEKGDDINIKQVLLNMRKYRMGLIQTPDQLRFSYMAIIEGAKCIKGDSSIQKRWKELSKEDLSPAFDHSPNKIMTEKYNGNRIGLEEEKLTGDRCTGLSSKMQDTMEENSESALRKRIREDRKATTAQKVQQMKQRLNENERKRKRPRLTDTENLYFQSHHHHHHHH
Kind of experiment: Mobility shift assay (MSA) to determine potency of PTPN2 inhibitors. The experiment is classed as biochemical. The conditions noted are these: 0.5 nM enzyme, 2 μM substrate. On the procedure: Compound activity was determined using in house His tagged PTPN2 (TC45) protein (SEQ ID NO: 1) in an in vitro enzymatic reaction. The enzymatic assay used to determine activity was a mobility shift assay using a LabChip EZ Reader by Caliper Life Sciences. The enzymatic reaction was carried out in assay buffer (50 mM HEPES pH 7.5, 1 mM EGTA, 10 mM EDTA, 0.01% Tween® 20, and 2 mM DTT). The compounds were dispensed on a white 384 well ProxiPlate™ (PerkinElmer Catalog #6008289) plate using the Labcyte Echo at varying concentrations (12 point, 1:3 dilution). The enzyme (at 0.5 nM) was incubated with compound for 10 minutes at room temperature. Then the substrate (phosphorylated insulin receptor probe sequence: ((OG488)-(NH—CH2—CH2—O—CH2—CH2—O—CH2—CO)-T-R-D-I-(PY)-E-T-D-Y—Y—R—K—K—NH2) (SEQ ID NO: 2) was added at 2 μM to the plates and incubated for another 10 minutes at room temperature. Finally, a quench solution (water and 4-bromo-3-(2-oxo-2-propoxyethoxy)-5-(3-{[1-(phenylmethanesulfonyl)piperidin-4-yl]amino}phenyl)thiophene-2-carboxylic acid) was added to the plates, which were then run on the EZ Reader (excitation 488 nm, emission 530 nm) to measure % conversion (the amount of phosphorylated substrate which was de-phosphorylated by PTPN2). […] The % inhibition was then used to calculate the IC50 values.

SMILES strings stand for the structures.

In the case of `O=C1CN(c2c(O)cc3c(c2F)C[C@H](NCC2C4CCCC42)CO3)S(=O)(=O)N1` (mixture of isomers) [Compound 383, 5-[(3S)-3-({[(1RS,5SR)-bicyclo[3.1.0]hexan-6-yl]methyl}amino)-5-fluoro-7-hydroxy-3,4-dihydro-2H-1-benzopyran-6-yl]-1λ^6,2,5-thiadiazolidine-1,1,3-trione], the IC50 in experiment [1] and in experiment [2] was 10 to 100 nM in each case. As for `CC1C[C@@H](NC(=O)OC(C)(C)C)Cc2c1cc(O)c(N1CC(=O)NS1(=O)=O)c2F` (mixture of isomers) [Compound 392, tert-butyl [(2R)-8-fluoro-6-hydroxy-4-methyl-7-(1,1,4-trioxo-1λ^6,2,5-thiadiazolidin-2-yl)-1,2,3,4-tetrahydronaphthalen-2-yl]carbamate], the half-inhibitory concentration (IC50) in experiment [1] and in experiment [2] was 10 to 100 nM each time.

On to `O=C1CN(c2c(O)cc3c(c2F)CN(C[C@H]2C[C@@H]2c2ccncc2)CC3)S(=O)(=O)N1` (racemic) [Compound 248], for which the IC50 (commonly the point on the concentration scale where inhibition reaches its midpoint) in experiment [1] lay within 10 to 100 nM. Same read-out and setting: under `CO[C@@H]1CCc2cc(O)c(N3CC(=O)NS3(=O)=O)c(F)c2C1` (single isomer, unassigned) [Compound 104] stands 10 to 100 nM; under `CO[C@H]1CCc2cc(O)c(N3CC(=O)NS3(=O)=O)c(F)c2C1` (single isomer, unassigned) [Compound 109], 10 to 100 nM. For `CC(C)CCN[C@H]1CCc2cc(O)c(N3CC(=O)NS3(=O)=O)c(F)c2C1` (single isomer, unassigned) [Compound 117], the half-maximal inhibitory concentration (IC50) in experiment [1] was in the range of 10 to 100 nM. With `O=C1CN(c2c(O)cc3c(c2F)C[C@H](NCCC2CC2)CC3)S(=O)(=O)N1` (single isomer, unassigned) [Compound 133], the IC50 in experiment [1] fell in the range of 1 to 10 nM. On the same count and under the same terms, next, `O=C1CN(c2c(O)cc3c(c2F)C[C@@H](NCCC2CC2)CC3)S(=O)(=O)N1` (single isomer, unassigned) [Compound 134]: 10 to 100 nM. On the same count and under the same terms, next, `O=C1CN(c2c(O)cc3c(c2F)C[C@@H]([C@@H]2CCNC2)CC3)S(=O)(=O)N1` (single isomer, unassigned) [Compound 136]: 10 to 100 nM; `O=C1CN(c2c(O)cc3c(c2F)C[C@@H]([C@@H]2CCN(S(=O)(=O)C4CC4)C2)CC3)S(=O)(=O)N1` (single isomer, unassigned) [Compound 137]: 1 to 10 nM. On to `O=C1CN(c2c(O)cc3c(c2F)C[C@@H]([C@H]2CCNC2)CC3)S(=O)(=O)N1` (single isomer, unassigned) [Compound 138], for which the IC50 in experiment [1] is 10 to 100 nM. On to `O=C1CN(c2c(O)cc3c(c2F)C[C@@H]([C@H]2CCN(S(=O)(=O)C4CC4)C2)CC3)S(=O)(=O)N1` (single isomer, unassigned) [Compound 139], for which the IC50 in experiment [1] fell in the range of 10 to 100 nM. Turning to `O=C1CN(c2c(O)cc3c(c2F)C[C@@H](NCCCC(F)(F)F)CC3)S(=O)(=O)N1` (single isomer, unassigned) [Compound 147], the IC50 in experiment [1] fell in the range of 10 to 100 nM. Regarding `O=C1CN(c2c(O)cc3c(c2F)C[C@H](NCCC2(C(F)(F)F)CC2)CC3)S(=O)(=O)N1` (single isomer, unassigned) [Compound 148], the IC50 in experiment [1] was below 1 nM.

For the compound `CC(C)(CCN[C@H]1CCc2cc(O)c(N3CC(=O)NS3(=O)=O)c(F)c2C1)C(F)(F)F` (single isomer, unassigned) [Compound 176], the IC50 in experiment [1] lay within 10 to 100 nM. Same read-out and setting: under `CC(C)(CCN[C@@H]1CCc2cc(O)c(N3CC(=O)NS3(=O)=O)c(F)c2C1)C(F)(F)F` (single isomer, unassigned) [Compound 177] stands 1 to 10 nM; under `O=C1CN(c2c(O)cc3c(c2F)C[C@H](NCCCC(F)F)CC3)S(=O)(=O)N1` (single isomer, unassigned) [Compound 199], below 1 nM. As for `O=C1CN(c2c(O)cc3c(c2F)C[C@@H](NCCC(F)F)CC3)S(=O)(=O)N1` (single isomer, unassigned) [Compound 259], the half-inhibitory concentration (IC50) in experiment [1] is 10 to 100 nM. With `O=C1CN(c2c(O)cc3c(c2F)C[C@H](NCCC(F)F)CC3)S(=O)(=O)N1` (single isomer, unassigned) [Compound 260], in experiment [1], the IC50 fell in the range of 1 to 10 nM. Take `CC(C)CCNC[C@@H]1Cc2cc(O)c(N3CC(=O)NS3(=O)=O)c(F)c2C1` (single isomer, unassigned) [Compound 291]: the IC50 in experiment [1] fell in the range of 1 to 10 nM. With `CC(C)CCNC[C@H]1Cc2cc(O)c(N3CC(=O)NS3(=O)=O)c(F)c2C1` (single isomer, unassigned) [Compound 292], in experiment [1], the IC50 lay in the range of 10 to 100 nM. Still for that read-out and setting: under `C[C@@H](O)CCN[C@@H]1CCc2cc(O)c(N3CC(=O)NS3(=O)=O)c(F)c2C1` (single isomer, unassigned) [Compound 307] stands 1 to 10 nM; under `CC(C)(CO)CCN[C@@H]1CCc2cc(O)c(N3CC(=O)NS3(=O)=O)c(F)c2C1` (single isomer, unassigned) [Compound 308], 1 to 10 nM. For the compound `[2H]C1([2H])Cc2cc(O)c(N3CC(=O)NS3(=O)=O)c(F)c2C([2H])([2H])[C@@]1([2H])NCCC(C)C` (single isomer, unassigned) [Compound 370], the IC50 is above 100 nM in experiment [1] and 10 to 100 nM in experiment [2]. Taken in the same sequence, the figures for `[2H]C1([2H])Cc2cc(O)c(N3CC(=O)NS3(=O)=O)c(F)c2C([2H])([2H])[C@]1([2H])NCCC(C)C` (single isomer, unassigned) [Compound 371] were 1 to 10 nM and below 1 nM. Taken in the same sequence, the figures for `NC[C@H]1Cc2cc(O)c(N3CC(=O)NS3(=O)=O)c(F)c2C1` (single isomer, unassigned) [Compound 407] were 10 to 100 nM and 10 to 100 nM. On to `NC[C@@H]1Cc2cc(O)c(N3CC(=O)NS3(=O)=O)c(F)c2C1` (single isomer, unassigned) [Compound 408], for which the IC50 in experiment [1] and in experiment [2] was 1 to 10 nM in each case. On to `O=C1CN(c2c(O)cc3c(c2F)CCCC3)S(=O)(=O)N1` [Compound 108], for which the IC50 in experiment [1] and in experiment [2] was 10 to 100 nM each time. As to `O=C1CN(c2c(O)cc3c(c2F)CCCO3)S(=O)(=O)N1` [Compound 111, 5-(5-fluoro-7-hydroxy-3,4-dihydro-2H-1-benzopyran-6-yl)-1λ^6,2,5-thiadiazolidine-1,1,3-trione], the IC50 in experiment [1] and in experiment [2] was 10 to 100 nM in each case. Regarding `Cc1cc(CNC(=O)N2CCc3cc(O)c(N4CC(=O)NS4(=O)=O)c(F)c3C2)n(C)n1` [Compound 265], the IC50 in experiment [2] lay in the range of 10 to 100 nM. Take `CN(C)CCCNC(=O)N1CCc2cc(O)c(N3CC(=O)NS3(=O)=O)c(F)c2C1` [Compound 285]: the IC50 in experiment [2] lay in the range of 10 to 100 nM. As to `CC(C)CCCC1CCc2cc(O)c(N3CC(=O)NS3(=O)=O)c(F)c2C1` (centres unmarked) [Compound 323], the IC50 in experiment [1] was 1 to 10 nM. Regarding `CC1=C(CCN[C@@H]2COc3cc(O)c(N4CC(=O)NS4(=O)=O)c(F)c3C2)C(C)(C)CCC1` [Compound 378, 5-[(3S)-5-fluoro-7-hydroxy-3-{[2-(2,6,6-trimethylcyclohex-1-en-1-yl)ethyl]amino}-3,4-dihydro-2H-1-benzopyran-6-yl]-1λ^6,2,5-thiadiazolidine-1,1,3-trione], in experiment [2], the IC50 fell in the range of 10 to 100 nM.
